The results in this text go back to publication PMC6469989 (ACS chemical biology, 2018).

Common to all, as to assay type: cell-based
The subject of test [1] is mutant ERα (Y537S, D538G, L536R). Nature of the test: Inhibition of mutant ERα-mediated transcription. As to conditions: MCF-7 cells, 100 nM, 24 hours.
In test [2] the test system is MCF-7 cells expressing doxycycline-inducible D538G mutant ERα. Nature of the test: Inhibition of MCF-7 cell proliferation driven by D538G mutant ERα. Conditions: Homo sapiens, MCF7, 120 h, read-out: Inhibition of Proliferation IC50 (nM ± SD).
The subject of test [3] is MCF-7 cells expressing doxycycline-inducible WT ERα. Description: Inhibition of MCF-7 cell proliferation driven by WT ERα. As to conditions: Homo sapiens, MCF7, 120 h, read-out: Inhibition of Proliferation IC50 (nM ± SD).
The subject of test [4] is MCF-7 cells expressing doxycycline-inducible L536R mutant ERα. Description: Inhibition of MCF-7 cell proliferation driven by L536R mutant ERα. As to conditions: Homo sapiens, MCF7, 120 h, read-out: Inhibition of Proliferation IC50 (nM ± SD).
For test [5], the system named is MCF-7 cells expressing doxycycline-inducible Y537S mutant ERα. Description: cells. As to conditions: Homo sapiens, MCF7, 120 h, read-out: Inhibition of Proliferation IC50 (nM ± SD).

Each structure is given as a SMILES string.

With `C[C@]12C[C@H](c3ccc(OCCCCCS(=O)(=O)CCCC(F)(F)C(F)(F)F)cc3)[C@@H]3c4ccc(O)cc4CC[C@H]3[C@@H]1CC[C@@H]2O` [RU58668], in test [1], the “inhibition of mutant ER transcriptional activity (in words)” value is given as “block much of the activity of all three mutants”.

With `C[C@]12CC[C@@H]3c4ccc(O)cc4C[C@@H](CCCCCCCCC[S+]([O-])CCCC(F)(F)C(F)(F)F)[C@H]3[C@@H]1CC[C@@H]2O` (some centres unmarked) [fulvestrant], the IC50 in test [2] amounted to 5.9 ± 0.6 nM; in test [3], 0.31 ± 0.03 nM; in test [4], 2.6 ± 0.4 nM; in test [5], 16 ± 1.8 nM.
